Laboratory results as given in article PMC5447021, “TNF Lectin-Like Domain Restores Epithelial Sodium Channel Function in Frameshift Mutants Associated with Pseudohypoaldosteronism Type 1B” (Frontiers in Immunology, 2017).

What was measured:
Assay type in all cases: cell-based, human
[1] = system: αS452fs (co-expressed with βγ-ENaC); assay: Whole-cell patch clamp, αS452fs + WT βγ; settings: read-out: EC50, solnatide, HEK-293, whole-cell, -100 mV, n = 5, p < 0.01 vs WT
Description: (§1) Point mutations of α-, β-, γ- and δ-hENaC and PHA1B frameshift mutations of α-hENaC were prepared with the QuikChange Lightning Site-Directed Mutagenesis Kit (Agilent Technologies, CA, USA). Mutagenic primers were designed individually with the Primer Design Program provided on the producer’s website or for the frameshift mutations the same base changes as reported in patients (see Table 2) were performed. Primers were ordered from Sigma-Aldrich, Vienna, Austria.
(§2) HEK-293 cells were transfected 1 day after cell seeding using X-tremeGENE HP DNA transfection reagent (Roche Diagnostics, Mannheim, Germany) according to the manufacturer’s protocol. A set of WT or mutant αβγ- or δβγ-hENaC, or α-, β-, γ-, or δ-hENaC alone was used, and the ratio of DNA to transfection reagent was 1:3. The expression was highest 48–72 h after transfection.
(§3) Electrophysiological experiments were performed as described in detail by Shabbir et al. ([16]). […] Currents were recorded with the patch clamp method in the whole-cell mode. The chamber contained 1 ml of the bath solution of the following composition (in mM): 145 NaCl, 2.7 KCl, 1.8 CaCl2, 2 MgCl2, 5.5 glucose, and 10 HEPES, adjusted to pH 7.4 with 1 M NaOH solution. Micropipettes were pulled from thin-walled borosilicate glass capillaries (Harvard Apparatus, Holliston, MA, USA) with a DMZ Zeitz Puller to obtain electrode resistances ranging from 2 to 5 MΩ. […]

αP197fs = assay: Membrane abundance of αP197fs; settings: 200 nM, relative to WT control (=1), own control 1.18 ± 0.05, p < 0.01 vs control
Description: (§4) Cell surface biotinylation was performed as previously described ([26]). In brief, A549 cells or transiently transfected HEK-293 cells were grown in 10 cm dishes in 37°C, 5% CO2 incubator in DMEM medium supplemented with 5% FBS. […] Medium was aspirated, and then cells were washed twice with 10 ml ice-cold phosphate-buffered saline (PBS), covered with 2.5 mg EZ-Link Sulfo-NHS-SS-Biotin (Thermo Scientific, Rockford, USA), dissolved in 10 ml ice-cold PBS, and incubated at 4°C with gentle agitation for 30 min. Fifty milliliters of quenching solution were added to cells; then cells were scraped in solution and transferred to fresh 50 ml tube. Cell suspension was centrifuged at 500 × g for 3 min. Supernatant was discarded, and 5 ml of Tris-buffered saline (TBS) was added to the cell pellet. The cell pellet was resuspended and centrifuged at 500 × g for 3 min. Supernatant was discarded and cell pellet was resuspended in lysis buffer containing protease inhibitor cocktail (10 µM pepstatin A, 10 µM phenylmethylsulfonyl fluoride, and 10 µM leupeptin) and transferred to fresh 1.5 ml centrifuge tube. Cell pellet was then homogenized on ice by ultrasonication using 1 s bursts and incubated on ice for at least 30 min. Intact cells and nuclei were pelleted by centrifugation at 10,000 × g for 2 min under cooling conditions. […] Exposed films were scanned and quantified using ImageJ (NIH, MD, USA). […]

αI68fs = assay: Membrane abundance of αI68fs; settings: 200 nM, relative to WT control (=1)
Description: as §4

αR438fs = assay: Membrane abundance of αR438fs; settings: 200 nM, relative to WT control (=1)
Description: as §4

[2] = system: αR438fs (co-expressed with βγ-ENaC); assay: Whole-cell patch clamp, αR438fs + WT βγ; settings: read-out: EC50, solnatide, HEK-293, whole-cell, -100 mV, n = 7
Description: as §1, §2, §3

SMILES: C[C@@H]1NC(=O)CNC(=O)[C@H](CCC(=O)O)NC(=O)[C@@H]2CCCN2C(=O)[C@H]([C@@H](C)O)NC(=O)[C@H](CCC(=O)O)NC(=O)[C@H](CCCNC(=N)N)NC(=O)[C@H](CCC(N)=O)NC(=O)CNC(=O)[C@@H](N)CSSC[C@@H](C(=O)O)NC(=O)[C@H](Cc2ccc(O)cc2)NC(=O)[C@H](Cc2c[nH]c3ccccc23)NC(=O)[C@@H]2CCCN2C(=O)[C@H](CCCCN)NC(=O)[C@H](C)NC(=O)[C@H](CCC(=O)O)NC1=O [solnatide, L-cysteine, L-cysteinylglycyl-L-glutaminyl-L-arginyl-L-α-glutamyl-L-threonyl-L-prolyl-L-α-glutamylglycyl-L-alanyl-L-α-glutamyl-L-alanyl-L-lysyl-L-prolyl-L-tryptophyl-L-tyrosyl-, cyclic (1→17)-disulfide]
- EC50 [1]: 0.0685 ± 0.0041 µM
- Membrane abundance, solnatide 5 min (αP197fs): 1.33 ± 0.07
- Membrane abundance, solnatide 5 min (αI68fs; 5 min, own control 0.15 ± 0.06, p < 0.05 vs control): 0.25 ± 0.07
- Membrane abundance, solnatide 10 min (αI68fs; 10 min, own control 0.15 ± 0.06, p < 0.01 vs control): 0.32 ± 0.11
- Membrane abundance, solnatide 5 min (αR438fs; 5 min, own control 0.90 ± 0.07, p < 0.001 vs control): 1.39 ± 0.14
- Membrane abundance, solnatide 10 min (αR438fs; 10 min, own control 0.90 ± 0.07): 0.87 ± 0.10
- EC50 [2]: 0.0566 ± 0.008 µM
